According to article PMC10215404, “Effect of Indole-Containing Pyrazino[2,1-b]quinazoline-3,6-diones in the Virulence of Resistant Bacteria” (Antibiotics, 2023):
Values after ≈ are worked out from the molar mass of the structure shown. Values joined by “and” are separate entries in the source; they are usually repeats but may differ in a detail not shown here. Equal entries are not always repeated. Where two headings read alike, the source gives them in different places.

How the values were obtained:
E. coli AG100A [1] = assay: Real-time ethidium bromide accumulation assay (efflux pump inhibition); details: minute 60
E. coli AG100 [2] = assay: as above; details: minute 60
MRSA 272123 = assay: Biofilm formation, crystal violet method; assay type: cell-based, Staphylococcus aureus
Description: (§1) The antibiofilm effect of the tested compounds was evaluated using the crystal violet method on E. coli AG100, E. coli AG100A, and MRSA 272123. […] CCCP was used as a positive control.
(§2) The biofilm-forming ability of the S. aureus strains was studied in 96-well microtiter plates using TSB broth in the presence of compounds. The biofilm-forming ability of the E. coli strains was studied in 96-well microtiter plates using LB broth in the presence of the compounds. […] The final volume was 200 μL in each well. The positive control was CCCP at 50 µM. Plates were incubated for 48 h at 30 °C with gentle shaking at 100 rpm. After the incubation period, the medium was removed and the plate was washed with water to remove unattached cells. A total of 200 μL CV (0.1% [v/v]) was added to each wells and incubated for 15 min at room temperature. CV was discarded from the wells and the plate was washed with water again. Then, 200 μL of 70% ethanol was added to each well and the biofilm formation was determined by measuring the OD at 600 nm using a Multiscan EX ELISA plate reader (Thermo Labsystems, Cheshire, WA, USA). The antibiofilm effect of the compounds was expressed as the percentage (%) decrease in biofilm formation.

S. aureus MRSA 272123 = assay: MIC determination, broth microdilution; assay type: cell-based; details: Staphylococcus aureus
Source text: (§3) Both reference and resistant strains used in this work were employed by our group for the screening of different families of compounds, such as xanthones and thioxanthones.

S. aureus 272123 = assay: Real-time ethidium bromide accumulation assay (efflux pump inhibition); details: minute 60
[3] = tested on: NIH/3T3 mouse fibroblast cell line; assay: Cytotoxicity assay (MTT); assay type: cell-based; details: NIH3T3, 24 h
Description: The effects of increasing concentrations of compounds on cell growth were tested in 96-well flat-bottomed microtiter plates. The compounds were diluted in a volume of 100 μL of medium. Afterwards, 1 × 10^4 cells in 100 μL of medium were added to each well, with the exception of the medium control. In the case of NIH/3T3 cells, the compounds were added after seeding the cells at 37 °C overnight. The plates were incubated at 37 °C for 24 h; after the incubation period, 20 μL of MTT solution (from a 5 mg/mL stock) was added to each well. After 4 h of incubation at 37 °C, 100 μL of SDS solution (10% in 0.01 M HCl) was added to each well and the plates were incubated at 37 °C overnight. Cell growth was determined by measuring the optical density (OD) at 540 nm (ref. 630 nm) with a Multiscan EX ELISA reader. Inhibition of cell growth was determined as IC50 values, defined as the inhibitory dose that reduced the growth of the cells exposed to the tested compounds by 50%. IC50 values and the SD of triplicate experiments were calculated by using GraphPad Prism software version 5.00 for Windows with a nonlinear regression curve fit (GraphPad Software, San Diego, CA, USA; www.graphpad.com, accessed on 14 July 2022). Doxorubicin (from a 2 mg/mL stock solution, Teva Pharmaceuticals) was used as the positive control.

[4] = tested on: E. coli AG100, E. coli AG100A, and MRSA 272123; assay: Biofilm formation, crystal violet method (overall statement); assay type: cell-based
Description: as §1, §2

S. aureus 66/1 (MRSA) = assay: MIC determination, broth microdilution; assay type: cell-based; details: Staphylococcus aureus
Source text: as §3

E. faecalis B3/101 (VRE) = assay: MIC determination, broth microdilution; assay type: cell-based; details: Enterococcus faecalis
Source text: as §3

E. faecalis PFi/2 = assay: MIC determination, broth microdilution; assay type: cell-based; details: Enterococcus faecalis
Source text: as §3

S. aureus ATCC 29213 = assay: MIC determination, broth microdilution; assay type: cell-based; details: Staphylococcus aureus
Source text: as §3

E. faecalis ATCC 29212 = assay: MIC determination, broth microdilution; assay type: cell-based; details: Enterococcus faecalis
Source text: as §3

E. faecalis PSi/107 = assay: MIC determination, broth microdilution; assay type: cell-based; details: Enterococcus faecalis
Source text: as §3

phytopathogenic fungi = tested on: phytopathogenic fungi; parameters: method as in PMID 22409377; details: several phytopathogenic fungi; cited from earlier work
E. coli AG100 [5] = assay: Biofilm formation, crystal violet method; assay type: cell-based, Escherichia coli; details: 50 μM
Description: as §1, §2

[6] = tested on: S. aureus, including the MRSA strains; assay: MIC, summary over S. aureus strains; details: Staphylococcus aureus
Description: (§4) The MIC of each compound was determined by the broth microdilution method, in accordance with the recommendations of the CLSI [48]. Two-fold serial dilutions of the compounds were prepared in Mueller–Hinton Broth 2 (MHB2–Sigma-Aldrich, St. Louis, MO, USA). Sterility and growth controls were included in each assay. Quality controls were performed with erythromycin for the Gram-positive bacterial strains and with colistin for the Gram-negative bacterial strains. Purity check and colony counts of the inoculum suspensions were also performed to ensure that the final inoculum density closely approximated 5 × 10^5 CFU/mL. The MIC was determined as the lowest concentration at which no visible growth was observed. […] The reported MIC results arose from at least three independent experiments.

[7] = tested on: E. faecalis including VRE; assay: MIC, summary over E. faecalis strains; details: Enterococcus faecalis
Description: as §4

Staphylococcus aureus = details: cited from earlier work
E. coli AG100 [8] = assay: MIC determination, broth microdilution; assay type: cell-based; details: Escherichia coli
Source text: as §3

E. coli AG100A [9] = assay: MIC determination, broth microdilution; assay type: cell-based; details: Escherichia coli
Source text: as §3

[10] = ATCC29213, value in parentheses
[11] = ATCC29212, value in parentheses

In the case of CC(C)C[C@@H]1NC(=O)[C@@H](Cc2c[nH]c3ccccc23)n2c1nc1ccc(I)cc1c2=O [Compound 13a], the “RFI ± SD” value (E. coli AG100A [1]; compound at 50 μM) is reported as 0.48 ± 0.58, the “RFI ± SD” value (E. coli AG100 [2]; compound at 50 μM) is reported as 0.38 ± 0.01 and the “decrease in biofilm formation” value (MRSA 272123) is reported as 91%. The MIC (S. aureus MRSA 272123) was > 100 µM and the “RFI ± SD” value (S. aureus 272123; compound at 50 μM) was 2.39 ± 0.09.

For CC(C)C[C@@H]1NC(=O)[C@H](Cc2c[nH]c3cc(F)ccc23)n2c1nc1c(Cl)cc(Cl)cc1c2=O [Compound 12c], the “RFI ± SD” value (E. coli AG100A [1]; compound at 100 μM) was 4.40 ± 1.78, the IC50 [3] was 46.1 ± 0.66 µM and the “antibiofilm capacity (in words)” value [4] was “did not show any relevant activity”. The “RFI ± SD” value (E. coli AG100 [2]; compound at 50 μM) was 0.24 ± 0.16, the “RFI ± SD” value (E. coli AG100 [2]; compound at 100 μM) was 3.60 ± 0.01 and the MIC (S. aureus 66/1 (MRSA)) was 33 µM and 16 µg/mL. For the same compound, the MIC (E. faecalis B3/101 (VRE)) was 33 µM and 16 µg/mL, the MIC (E. faecalis PFi/2) was > 100 µM and the MIC (S. aureus ATCC 29213; ATCC29213) was 33 µM. For the same compound, the MIC (S. aureus ATCC 29213; [10]) was 16 µg/mL, the MIC (S. aureus MRSA 272123) was 12.5 µM and 6.1 µg/mL and the MIC (E. faecalis ATCC 29212; ATCC29212) was 33 to 66 µM. The MIC (E. faecalis ATCC 29212; [11]) was 16 to 32 µg/mL, the MIC (E. faecalis PSi/107) was > 100 µM and the “RFI ± SD” value (S. aureus 272123; compound at 6.25 μM (MIC/2)) was 0.49 ± 0.01.

For C[C@@H]1N[C@H]2N(C1=O)c1ccccc1[C@@]2(O)C[C@@H]1C(=O)N[C@@H](C)c2nc3ccccc3c(=O)n21 [fumiquinazoline A], the MIC (phytopathogenic fungi) is listed as 12.5 to 25 µg/mL.

In the case of O=C1N[C@@H](Cc2ccc(OCc3ccccc3)cc2)c2nc3c(Cl)cc(Cl)cc3c(=O)n2[C@@H]1Cc1c[nH]c2ccccc12 [Compound 13d], the “RFI ± SD” value (E. coli AG100A [1]; compound at 50 μM) is reported as 0.55 ± 0.29, the “decrease in biofilm formation” value (E. coli AG100 [5]) is reported as 61% and the “RFI ± SD” value (E. coli AG100 [2]; compound at 50 μM) is reported as −0.01 ± 0.03. The MIC (S. aureus MRSA 272123) was > 100 µM and the “RFI ± SD” value (S. aureus 272123; compound at 50 μM) was 0.19 ± 0.08.

With CC(C)C[C@@H]1NC(=O)[C@@H](Cc2c[nH]c3ccccc23)n2c1nc1ccc(Br)cc1c2=O [Compound 13b] the “RFI ± SD” value (E. coli AG100A [1]; compound at 50 μM) was 0.12 ± 0.05, the “RFI ± SD” value (E. coli AG100 [2]; compound at 50 μM) was 0.52 ± 0.18 and the MIC (S. aureus MRSA 272123) was > 100 µM. For the same compound, the “RFI ± SD” value (S. aureus 272123; compound at 50 μM) was 1.53 ± 0.02.

With CC(C)C[C@@H]1NC(=O)[C@H](Cc2c[nH]c3c(Cl)cccc23)n2c1nc1c(Cl)cc(Cl)cc1c2=O [Compound 12d, (1S,4S)-8,10-dichloro-4-((7-chloro-1H-indol-3-yl)methyl)-1-isobutyl-1,2-dihydro-6H-pyrazino[2,1-b]quinazoline-3,6(4H)-dione] the MIC [6] was 16 to 32 µM (≈ 8.06 to 16.1 µg/mL), the “RFI ± SD” value (E. coli AG100A [1]; compound at 100 μM) was 0.23 ± 0.05 and the MIC [7] was 64 µM (≈ 32.2 µg/mL). For the same compound, the IC50 [3] was 47.2 ± 1.55 µM, the “antibiofilm capacity (in words)” value [4] was “did not show any relevant activity” and the “RFI ± SD” value (E. coli AG100 [2]; compound at 100 μM) was 0.32 ± 0.10. The MIC (S. aureus 66/1 (MRSA)) was 16 µM and 8 µg/mL, the MIC (E. faecalis B3/101 (VRE)) was 64 µM and 32 µg/mL and the MIC (E. faecalis PFi/2) was > 100 µM. For the same compound, the MIC (S. aureus ATCC 29213; ATCC29213) was 32 µM, the MIC (S. aureus ATCC 29213; [10]) was 16 µg/mL and the MIC (S. aureus MRSA 272123) was 25 µM and 12.6 µg/mL. The MIC (E. faecalis ATCC 29212; ATCC29212) was 64 µM, the MIC (E. faecalis ATCC 29212; [11]) was 32 µg/mL and the MIC (E. faecalis PSi/107) was > 100 µM. For the same compound, the “RFI ± SD” value (S. aureus 272123; compound at 12.5 μM) was 0.34 ± 0.01.

In the case of N#CC(C#N)=NNc1cccc(Cl)c1 [CCCP, carbonyl cyanide m-chlorophenyl hydrazone, reference compound], the “RFI ± SD” value (E. coli AG100A [1]; compound at 50 μM) is reported as 1.13 ± 0.02 and the “RFI ± SD” value (E. coli AG100 [2]; compound at 50 μM) is reported as 1.56 ± 0.01.

In the case of CC(C)C[C@@H]1NC(=O)[C@@H](Cc2c[nH]c3ccccc23)n2c1nc1c(Cl)cc(Cl)cc1c2=O [Compound 4], the “RFI ± SD” value (E. coli AG100A [1]; compound at 50 μM) is reported as 0.26 ± 0.07, the “antibiofilm effect (in words)” value (E. coli AG100 [5]) is reported as “reduced the amount of biofilm” and the “RFI ± SD” value (E. coli AG100 [2]; compound at 50 μM) is reported as 0.01 ± 0.02. The MIC (Staphylococcus aureus; resistant strain of S. aureus) was 8 µg/mL (≈ 17 µM), the MIC (Staphylococcus aureus; sensitive strain of S. aureus) was 4 µg/mL (≈ 8.52 µM) and the “decrease in biofilm formation” value (MRSA 272123) was 91%. For the same compound, the MIC (E. coli AG100 [8]) was > 100 µM, the MIC (E. coli AG100A [9]) was > 100 µM and the MIC (S. aureus MRSA 272123) was > 100 µM. For the same compound, the “RFI ± SD” value (S. aureus 272123; compound at 50 μM) was 1.13 ± 0.20.
